Reference: patent US7927622B1, “Methods of transnasal transport/immunization with highly adaptable carriers” (priority 1999, dated 2011)
Non-standard residues stand in square brackets, D forms with d. Residues, ends and D or L forms follow the SMILES beside them. dTrp(2-Me) = Cc1[nH]c2ccccc2c1C[C@@H](N)C(=O)O

Key:
[1] = human, in vivo, cited from earlier work
[2] = in vivo; cited from earlier work
GH response = conditions: in vivo, cited from earlier work
[3] = in vivo, cited from earlier work
[4] = in vivo; cited from earlier work; remark: listed apart in the source
A-receptor subtype = A-receptor subtype (Canis lupus familiaris, UniProt Q5D0K2); conditions: dog, in vivo; cited from earlier work
Sequence of A-receptor subtype (Q5D0K2 whole entry): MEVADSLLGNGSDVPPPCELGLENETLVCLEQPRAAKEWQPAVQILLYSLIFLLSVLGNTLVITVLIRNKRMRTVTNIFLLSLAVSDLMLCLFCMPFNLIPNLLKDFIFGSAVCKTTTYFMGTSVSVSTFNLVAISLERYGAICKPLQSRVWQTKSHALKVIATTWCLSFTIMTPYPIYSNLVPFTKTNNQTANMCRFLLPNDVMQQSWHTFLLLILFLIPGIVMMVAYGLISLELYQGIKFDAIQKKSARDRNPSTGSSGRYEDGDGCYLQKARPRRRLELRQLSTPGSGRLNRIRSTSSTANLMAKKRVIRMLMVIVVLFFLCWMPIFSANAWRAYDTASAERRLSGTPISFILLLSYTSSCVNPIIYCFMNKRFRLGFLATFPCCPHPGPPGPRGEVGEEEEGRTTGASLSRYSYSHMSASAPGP

[5] = in vivo; cited from earlier work; remark: listed apart in the source
[6] = rat, in vivo, sc; cited from earlier work
[7] = human, in vivo; cited from earlier work
anti-TT antibodies = test system: anti-TT antibodies; parameters: species or system mice; conditions: mouse, in vivo
[8] = in vivo; cited from earlier work; remark: listed apart in the source
[9] = in vivo; cited from earlier work; remark: listed apart in the source
[10] = in vivo; cited from earlier work; remark: listed apart in the source
[11] = cited from earlier work
[12] = cited from earlier work; remark: listed apart in the source
[13] = cited from earlier work; remark: listed apart in the source
[14] = stomach and GI tract, cited from earlier work
[15] = with polyoxyethylene 9-lauryl ether (Laureth-9)

CCK-8
auditory event related potential (AERP) ([1]; iv): shown to affect the auditory event related potential (AERP) | plasma CCK-8 concentrations vs 0.25 μg i.v. [1]: comparable | plasma CCK-8 concentrations vs 2.5 μg i.v. [1]: substantially lower

GHRP-2
response to intranasal GHRP-2 [2]: significant, but not quantitated, response

Cc1[nH]c2ccccc2c1C[C@@H](NC(=O)[C@@H](N)Cc1cnc[nH]1)C(=O)N[C@@H](C)C(=O)N[C@@H](Cc1c[nH]c2ccccc12)C(=O)N[C@H](Cc1ccccc1)C(=O)N[C@@H](CCCCN)C(N)=O [hexarelin] (H-H[dTrp(2-Me)]AW[dF]K-NH2)
IGF-I and IGFBP-3 levels (GH response; po): slightly but significantly increased | GH response (GH response): not significantly higher than that induced by an injection of 1 μg GHRH/kg | IGF-I (GH response): did not significantly modify | IGFBP-3 levels (GH response): increased

NC(=O)CC[C@@H]1NC(=O)[C@H](Cc2ccccc2)NC(=O)[C@H](Cc2ccc(O)cc2)NC(=O)[C@@H](N)CSSC[C@@H](C(=O)N2CCC[C@H]2C(=O)N[C@@H](CCCN=C(N)N)C(=O)NCC(N)=O)NC(=O)[C@H](CC(N)=O)NC1=O [AVP]
plasma vasopressin increase after i.v. relative to the other route ([3]; iv): exceeding 2000 fold | P3 component of the ERP [3]: substantially increased | memory performance [4]: enhanced memory performance

Hpa(SO3H)-Nle-Gly-Trp-Nle-MeAsp-Phe-NH2
feeding (A-receptor subtype): inhibited feeding

NC(=O)CC[C@@H]1NC(=O)[C@H](Cc2ccccc2)NC(=O)[C@H](Cc2ccc(O)cc2)NC(=O)[C@@H](N)CSSC[C@@H](C(=O)N2CCC[C@H]2C(=O)N[C@@H](CCCN=C(N)N)C(=O)NCC(N)=O)NC(=O)[C@H](CC(N)=O)NC1=O [vasopressin]
nocturnal slow-wave sleep [5]: enhance nocturnal slow-wave sleep

Salmon calcitonin
effectiveness of the invasive method relative to nasal [6]: approximately 2 times | osteopenic changes [6]: prevented the osteopenic changes | decrease in serum 1,25-dihydroxyvitamin D [7]: 14% | inhibition of the increase in fasting 2 h urinary hydroxyproline/creatinine ratio (OHPr/Cr) [7]: 40% | lowering of the increase in calcium/creatinine ratio (Ca/Cr) [7]: 80% | pain scores (visual analog scale) [7]: did not influence the pain scores | tolerability [7]: well tolerated

monophosphoryl Lipid A [LA]
dependence of immune response on LA (anti-TT antibodies): no strong dependence was found | dose dependence of TT-specific increase in serum absorbance (anti-TT antibodies): reverting this trend | effect of LA with purified TT (anti-TT antibodies): profited from the presence of LA

NC(=O)CC[C@@H]1NC(=O)[C@H](Cc2ccccc2)NC(=O)[C@H](Cc2ccc(O)cc2)NC(=O)CCSSC[C@@H](C(=O)N2CCC[C@H]2C(=O)N[C@H](CCCN=C(N)N)C(=O)NCC(N)=O)NC(=O)[C@H](CC(N)=O)NC1=O [DDAVP]
pain perception [8]: no general effect

CCNC(=O)[C@@H]1CCCN1C(=O)[C@H](CCCNC(=N)N)NC(=O)[C@H](CC(C)C)NC(=O)[C@@H](COC(C)(C)C)NC(=O)[C@H](Cc1ccc(O)cc1)NC(=O)[C@H](CO)NC(=O)[C@H](Cc1c[nH]c2ccccc12)NC(=O)[C@H](Cc1cnc[nH]1)NC(=O)[C@@H]1CCC(=O)N1 [buserelin]
AFS mean pelvic score after treatment (from 24) [9]: 7 | decrease of the size of the fibroids [9]: 69%

desglycinamide-[Arg8]vasopressin [DGAVP]
learning concrete words [10]: no positive effect | reaction time for scanning of digits (Sternberg paradigm) [10]: reduced the reaction time | short-term memory for abstract words [10]: improved short-term memory for abstract words in males but not in females

GH: growth hormone protein
serum GH peak value ([11]; i.v. 0.015 IU/kg): 128 µg/L | serum GH peak level ([11]; s.c. 0.10 IU/kg): around 14 μg/L | serum IGF-I levels ([11]; s.c. administration only): increased significantly | bioavailability ([11]; s.c. injection): 50%

B1: rhG-CSF: recombinant human granulocyte colony-stimulating factor, MW=19600 (protein, UniProt P09919 31-207, looked up)
Granulocyte …: TPLGPASSLPQSFLLKCLEQVRKIQGDGAALQEKLVSECATYKLCHPEELVLLGHSLGIPWAPLSSCPSQALQLAGCLSQLHSGLFLYQGLLQALEGISPELGPTLDTLQLDVADFATTIWQQMEELGMAPALQPTQGAMPAFASAFQRRAGGVLVASHLQSFLEVSYRVLRHLAQP
total leukocyte numbers in peripheral blood ([12]; nasal, pH 4, with or without dimethyl-β-cyclodextrin): increased | absorption with excipients ([12]; with dimethyl-β-cyclodextrin): improved the absorption of rhG-CSF appreciably | availability from leukocyte stimulation counts ([13]; nasal, t=48 h): 5-10% | relative bioavailability compared to s.c. injection (plasma AUC) ([13]; rat, in vivo): approximately 2% | increase of pharmacological availability [13, 15]: 3 times | increase of relative bioavailability [13, 15]: 23 times | change of availability ([13]; with sodium glycocholate): no increase in availability

B2: OVA: ovalbumin (protein, UniProt P01012 2-386, looked up)
Ovalbumin: GSIGAASMEFCFDVFKELKVHHANENIFYCPIAIMSALAMVYLGAKDSTRTQINKVVRFDKLPGFGDSIEAQCGTSVNVHSSLRDILNQITKPNDVYSFSLASRLYAEERYPILPEYLQCVKELYRGGLEPINFQTAADQARELINSWVESQTNGIIRNVLQPSSVDSQTAMVLVNAIVFKGLWEKAFKDEDTQAMPFRVTEQESKPVQMMYQIGLFRVASMASEKMKILELPFASGTMSMLVLLPDEVSGLEQLESIINFEKLTEWTSSNVMEERKIKVYLPRMKMEEKYNLTSVLMAMGITDVFSSSANLSGISSAESLKISQAVHAAHAEINEAGREVVGSAEAGVDAASVSEEFRADHPFLFCIKHIATNAVLFFGRCVSP
absorption into the blood circulation, of applied dose ([14]; first printed range): 0.007-0.008% | absorption into the lymph circulation, of applied dose ([14]; second printed range): 0.0007-0.002%
